{"source": "patent US8993542B2", "about": "“Methods of treating viral infections” (priority 2008, dated 2015)", "key": {"HIV": {"system": "HIV", "assay": "microbe, parasite or virus in culture", "type": "cell-based"}, "HIV-1IIIB": {"system": "HIV-1IIIB", "assay": "Two-drug combination antiviral assay in CEM cells (CPE), MacSynergy II", "type": "cell-based", "conditions": "for Antagonism Volume, Result 1 / Antagonism Volume, Result 2 / Antagonism Volume, Result 3 / Mean Antagonism Volume (n = 3) / Mean Synergy Volume (n = 3) / Synergy Volume, Result 1 / Synergy Volume, Result 2 / Synergy Volume, Result 3: in combination with CMX157, CEM-SS cells, 95% confidence; for Interpretation of Antiviral Results (MacSynergy): two-drug combination (with CMX157; control d4T/RBV), CEM-SS cells"}}, "note": "pIC50: −log10 of the molar value."}
{"compound": "Nc1ccn([C@@H]2CS[C@H](CO)O2)c(=O)n1", "note": "[3TC, (2R, 5S, cis)-4-amino-1-(2-hydroxymethyl-1,3-oxathiolan-5-yl)-(1H)-pyrimidin-2-one]", "values": [{"measurement": "pIC50", "setting": "HIV; Human immunodeficiency virus 1, PANEL 1, WT", "result": 5.49}, {"measurement": "pIC50", "setting": "HIV; Human immunodeficiency virus 1, PANEL 2, WT", "result": 5.35}, {"measurement": "pIC50", "setting": "HIV; Human immunodeficiency virus 1, PANEL 3, 6 TAMs, no 184", "result": 4.86}, {"measurement": "pIC50", "setting": "HIV; Human immunodeficiency virus 1, PANEL 6, 6 TAMs + 184", "result": "< 3.52"}, {"measurement": "pIC50", "setting": "HIV; Human immunodeficiency virus 1, PANEL 7, 184V", "result": "< 3.52"}, {"measurement": "pIC50", "setting": "HIV; Human immunodeficiency virus 1, PANEL 9, 69ins, no 184", "result": 4.34}, {"measurement": "pIC50", "setting": "HIV; Human immunodeficiency virus 1, PANEL 12, 69ins + 184", "result": "< 3.52"}, {"measurement": "pIC50", "setting": "HIV; Human immunodeficiency virus 1, PANEL 14, 65R, no 184", "result": 4.15}, {"measurement": "pIC50", "setting": "HIV; Human immunodeficiency virus 1, PANEL 15, 65R + 184V", "result": "< 3.52"}, {"measurement": "pIC50", "setting": "HIV; Human immunodeficiency virus 1, PANEL 17, L74V", "result": 5.16}, {"measurement": "pIC50", "setting": "HIV; Human immunodeficiency virus 1, PANEL 19, L74V + M184V", "result": "< 3.52"}, {"measurement": "pIC50", "setting": "HIV; Human immunodeficiency virus 1, PANEL 26, 151M, no 184", "result": 4.05}, {"measurement": "pIC50", "setting": "HIV; Human immunodeficiency virus 1, PANEL 28, 151M + 184", "result": "< 3.52"}, {"measurement": "pIC50", "setting": "HIV; Human immunodeficiency virus 1, PANEL 29, L74V − SDM", "result": 5.21}, {"measurement": "pIC50", "setting": "HIV; Human immunodeficiency virus 1, PANEL 30, M184V − SDM", "result": "< 3.52"}, {"measurement": "pIC50", "setting": "HIV; Human immunodeficiency virus 1, PANEL 31, K65R − SDM", "result": 4.36}, {"measurement": "pIC50", "setting": "HIV; Human immunodeficiency virus 1, PANEL 33, T215Y", "result": 5.21}, {"measurement": "pIC50", "setting": "HIV; Human immunodeficiency virus 1, PANEL 34, T215Y + M184V", "result": "< 3.52"}, {"measurement": "pIC50", "setting": "HIV; Human immunodeficiency virus 1, PANEL 35, M41L + T215Y", "result": 5.12}, {"measurement": "pIC50", "setting": "HIV; Human immunodeficiency virus 1, PANEL 37, M41L + T215Y + M184V", "result": "< 3.52"}, {"measurement": "pIC50", "setting": "HIV; Human immunodeficiency virus 1, PANEL 38, M41L + L210W + T215Y", "result": 4.99}, {"measurement": "pIC50", "setting": "HIV; Human immunodeficiency virus 1, PANEL 39, M41L + L210W + T215Y", "result": 5.23}, {"measurement": "pIC50", "setting": "HIV; Human immunodeficiency virus 1, PANEL 40, M41L + L210W + T215Y + M184V", "result": "< 3.52"}, {"measurement": "pIC50", "setting": "HIV; Human immunodeficiency virus 1, PANEL 41, M41L + L210W + T215Y + M184V", "result": "< 3.52"}, {"measurement": "pIC50", "setting": "HIV; Human immunodeficiency virus 1, PANEL 42, D67N + K70R", "result": 5.09}, {"measurement": "pIC50", "setting": "HIV; Human immunodeficiency virus 1, PANEL 44, D67N + K70R + T215F + K219E + M184V", "result": "< 3.52"}, {"measurement": "pIC50", "setting": "HIV; Human immunodeficiency virus 1, PANEL 45, L210W + T215Y", "result": 5.14}, {"measurement": "pIC50", "setting": "HIV; Human immunodeficiency virus 1, PANEL 46, D67N + K70E", "result": 4.97}, {"measurement": "pIC50", "setting": "HIV; Human immunodeficiency virus 1, PANEL 47, D67N + K70E + M184V", "result": "< 3.52"}, {"measurement": "pIC50", "setting": "HIV; Human immunodeficiency virus 1, PANEL 48, K70E + M184V", "result": "< 3.52"}]}
{"compound": "Cc1cc(C#N)cc(C)c1Oc1nc(Nc2ccc(C#N)cc2)nc(N)c1Br", "note": "[Etravirine (ETV), etravirine]", "values": [{"measurement": "Antagonism Volume, Result 1", "setting": "HIV-1IIIB", "result": "−0.75 nM^2 %, μM^2 % or nMμM %"}, {"measurement": "Antagonism Volume, Result 2", "setting": "HIV-1IIIB", "result": "0 nM^2 %, μM^2 % or nMμM %"}, {"measurement": "Antagonism Volume, Result 3", "setting": "HIV-1IIIB", "result": "−0.87 nM^2 %, μM^2 % or nMμM %"}, {"measurement": "Mean Antagonism Volume (n = 3)", "setting": "HIV-1IIIB", "result": "−0.29 nM^2 %, μM^2 % or nMμM %"}, {"measurement": "Mean Synergy Volume (n = 3)", "setting": "HIV-1IIIB", "result": "69.0 nM^2 %, μM^2 % or nMμM %"}, {"measurement": "Synergy Volume, Result 1", "setting": "HIV-1IIIB", "result": "34.9 nM^2 %, μM^2 % or nMμM %"}, {"measurement": "Synergy Volume, Result 2", "setting": "HIV-1IIIB", "result": "106 nM^2 %, μM^2 % or nMμM %"}, {"measurement": "Synergy Volume, Result 3", "setting": "HIV-1IIIB", "result": "67.4 nM^2 %, μM^2 % or nMμM %"}, {"measurement": "Interpretation of Antiviral Results (MacSynergy)", "setting": "HIV-1IIIB", "result": "slightly synergistic"}]}
{"compound": "Cc1cccc(C)c1OCC(=O)N[C@@H](Cc1ccccc1)[C@@H](O)C[C@H](Cc1ccccc1)NC(=O)[C@H](C(C)C)N1CCCNC1=O", "note": "[Lopinavir (LPV), lopinavir]", "values": [{"measurement": "Antagonism Volume, Result 1", "setting": "HIV-1IIIB", "result": "−0.31 nM^2 %, μM^2 % or nMμM %"}, {"measurement": "Antagonism Volume, Result 2", "setting": "HIV-1IIIB", "result": "0 nM^2 %, μM^2 % or nMμM %"}, {"measurement": "Antagonism Volume, Result 3", "setting": "HIV-1IIIB", "result": "−0.12 nM^2 %, μM^2 % or nMμM %"}, {"measurement": "Mean Antagonism Volume (n = 3)", "setting": "HIV-1IIIB", "result": "−0.14 nM^2 %, μM^2 % or nMμM %"}, {"measurement": "Mean Synergy Volume (n = 3)", "setting": "HIV-1IIIB", "result": "55.6 nM^2 %, μM^2 % or nMμM %"}, {"measurement": "Synergy Volume, Result 1", "setting": "HIV-1IIIB", "result": "78.8 nM^2 %, μM^2 % or nMμM %"}, {"measurement": "Synergy Volume, Result 2", "setting": "HIV-1IIIB", "result": "28.3 nM^2 %, μM^2 % or nMμM %"}, {"measurement": "Synergy Volume, Result 3", "setting": "HIV-1IIIB", "result": "59.8 nM^2 %, μM^2 % or nMμM %"}, {"measurement": "Interpretation of Antiviral Results (MacSynergy)", "setting": "HIV-1IIIB", "result": "slightly synergistic"}]}
{"compound": "O=C1Nc2ccc(Cl)cc2C(C#CC2CC2)(C(F)(F)F)O1", "note": "(centres unmarked) [Efavirenz (EFV), 6-chloro-4-cyclopropylethynyl-4-trifluoromethyl-1,4-dihydro-2H3,1-benzoxazin-2-one]", "values": [{"measurement": "Antagonism Volume, Result 1", "setting": "HIV-1IIIB", "result": "0 nM^2 %, μM^2 % or nMμM %"}, {"measurement": "Antagonism Volume, Result 2", "setting": "HIV-1IIIB", "result": "0 nM^2 %, μM^2 % or nMμM %"}, {"measurement": "Antagonism Volume, Result 3", "setting": "HIV-1IIIB", "result": "0 nM^2 %, μM^2 % or nMμM %"}, {"measurement": "Mean Antagonism Volume (n = 3)", "setting": "HIV-1IIIB", "result": "0 nM^2 %, μM^2 % or nMμM %"}, {"measurement": "Mean Synergy Volume (n = 3)", "setting": "HIV-1IIIB", "result": "69.8 nM^2 %, μM^2 % or nMμM %"}, {"measurement": "Synergy Volume, Result 1", "setting": "HIV-1IIIB", "result": "85.7 nM^2 %, μM^2 % or nMμM %"}, {"measurement": "Synergy Volume, Result 2", "setting": "HIV-1IIIB", "result": "80.6 nM^2 %, μM^2 % or nMμM %"}, {"measurement": "Synergy Volume, Result 3", "setting": "HIV-1IIIB", "result": "43.2 nM^2 %, μM^2 % or nMμM %"}, {"measurement": "Interpretation of Antiviral Results (MacSynergy)", "setting": "HIV-1IIIB", "result": "slightly synergistic"}]}
{"compound": "enfuvirtide", "values": [{"measurement": "Antagonism Volume, Result 1", "setting": "HIV-1IIIB", "result": "0/0 nM^2 %, μM^2 % or nMμM %"}, {"measurement": "Antagonism Volume, Result 2", "setting": "HIV-1IIIB", "result": "0 nM^2 %, μM^2 % or nMμM %"}, {"measurement": "Antagonism Volume, Result 3", "setting": "HIV-1IIIB", "result": "0/0 nM^2 %, μM^2 % or nMμM %"}, {"measurement": "Mean Antagonism Volume (n = 3)", "setting": "HIV-1IIIB", "result": "0 nM^2 %, μM^2 % or nMμM %"}, {"measurement": "Mean Synergy Volume (n = 3)", "setting": "HIV-1IIIB", "result": "1.02 nM^2 %, μM^2 % or nMμM %"}, {"measurement": "Synergy Volume, Result 1", "setting": "HIV-1IIIB", "result": "0/0 nM^2 %, μM^2 % or nMμM %"}, {"measurement": "Synergy Volume, Result 2", "setting": "HIV-1IIIB", "result": "3.05 nM^2 %, μM^2 % or nMμM %"}, {"measurement": "Synergy Volume, Result 3", "setting": "HIV-1IIIB", "result": "0/0 nM^2 %, μM^2 % or nMμM %"}]}
